Reference: paper PMC9861162 (Pharmaceuticals, 2022)
Entries after “also recorded” stand apart in the source; their conditions may differ. Like-named read-outs stand apart in the source and are kept apart here.

What was measured:
CYP2A6 = molecular target: T1, CYP2A6 (Homo sapiens, UniProt P11509); test: in vitro CYP450 metabolism inhibition assay in human liver microsomes, CYP2A6 (coumarin); settings: microsomes
T1 sequence (P11509 1-494): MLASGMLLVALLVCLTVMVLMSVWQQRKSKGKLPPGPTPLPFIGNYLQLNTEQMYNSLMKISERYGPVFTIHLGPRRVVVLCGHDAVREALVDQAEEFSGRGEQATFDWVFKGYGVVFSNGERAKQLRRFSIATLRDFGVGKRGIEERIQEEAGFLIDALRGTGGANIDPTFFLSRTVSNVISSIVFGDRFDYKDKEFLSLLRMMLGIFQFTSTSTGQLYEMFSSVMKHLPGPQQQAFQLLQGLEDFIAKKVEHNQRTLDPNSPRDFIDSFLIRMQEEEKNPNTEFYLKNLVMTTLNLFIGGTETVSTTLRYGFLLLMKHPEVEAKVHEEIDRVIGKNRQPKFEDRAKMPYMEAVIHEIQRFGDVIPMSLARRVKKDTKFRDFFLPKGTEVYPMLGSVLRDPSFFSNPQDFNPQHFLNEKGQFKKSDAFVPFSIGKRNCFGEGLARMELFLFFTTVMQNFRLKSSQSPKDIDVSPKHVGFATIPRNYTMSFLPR
Experimental: The incubation conditions employed for each CYP450 isoform were performed, as previously described.
Buffer solution (0.1 mol/L aqueous phosphate buffer, pH 7.4, 69 µL), NADPH-regenerating solutions (10 µL solution A: 26 mmol/L NADP+, 66 mmol/L glucose-6-phosphate, and 66 mmol/L MgCl2; 2 µL solution B: 40 U/mL glucose-6-phosphate dehydrogenase in 5 mmol/L sodium citrate), and deionized water (69 µL) were added, in a total volume of 150 μL. The tubes were vortex-mixed and preincubated with continuous gentle shaking for 5 min at 37 °C in a shaking water bath. Reactions were initiated by the addition of 50 µL of HLM solution in the tubes which were gently mixed by hand and incubated with continuous gentle shaking at 37 °C. Aliquots of 200 µL ice-cold solvent (Table 1) containing IS (1 µg/mL) were added. […] The supernatants were transferred to glass autosampler vials and submitted to LC-MS/MS analysis (5 µL injection volume) to monitor the substrate metabolite formation.

CYP2C19 = CYP2C19 (Homo sapiens, UniProt P33261); test: clinical DDI prediction, static (IVIVE) and dynamic (PBPK) models, CYP2C19
CYP2C19, sequence (P33261 whole entry): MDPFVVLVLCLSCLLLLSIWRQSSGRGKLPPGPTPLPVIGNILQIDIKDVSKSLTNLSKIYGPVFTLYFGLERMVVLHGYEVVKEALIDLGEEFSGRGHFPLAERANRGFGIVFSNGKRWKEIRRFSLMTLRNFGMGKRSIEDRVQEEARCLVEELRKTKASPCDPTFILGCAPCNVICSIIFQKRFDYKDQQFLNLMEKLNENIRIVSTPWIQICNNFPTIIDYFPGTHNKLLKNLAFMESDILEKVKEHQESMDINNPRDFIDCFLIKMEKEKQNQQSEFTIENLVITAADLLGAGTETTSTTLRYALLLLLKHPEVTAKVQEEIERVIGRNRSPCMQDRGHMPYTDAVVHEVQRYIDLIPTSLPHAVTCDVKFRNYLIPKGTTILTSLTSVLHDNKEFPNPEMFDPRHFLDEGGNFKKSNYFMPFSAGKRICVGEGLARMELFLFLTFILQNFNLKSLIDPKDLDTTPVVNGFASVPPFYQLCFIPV
Description: (§1) The Ki input values were estimated from the ratio IC50/2. Since the IC50 experiments were designed considering the substrate concentration equal to Km, the simplification of Ki as IC50/2 was considered for a competitive inhibition reaction.
(§2) The following Equation (4) was considered for the potential DDI evaluation:(4) AUCR=AUCwith inhibitor/AUCwithout inhibitor where AUCR is the area under the curve ratio, AUCwith inhibitor is AUC in the presence of the inhibitor, and AUCwithout inhibitor is AUC in the absence of the inhibitor.

CYP3A4 = test: clinical DDI prediction, static (IVIVE) and dynamic (PBPK) models, CYP3A4; settings: for FDA Classification as CYP inhibitor: higher of static and dynamic AUCR; for R1: reversible inhibition
Description: as §1, §2

[1] = dapaconazole PBPK model in dogs (Simcyp); set-up: species or system dog
Experimental: A PBPK model was first developed in dogs using a hybrid PBPK approach employing the in vivo clearance reported in dogs. The input parameters are described in Table 4.
Then, the full PBPK model, which used the method 2 (Rodgers and Rowland [15]) to predict the volume of distribution at steady-state conditions (Vss) was evaluated.
All modeling was conducted using Simcyp modeling software (v. 20, Certara, Princeton, NJ, US). […] All of the input parameters are described in Table 4.
The Simcyp minimal PBPK, which considers all organs other than the intestine and liver as a single compartment, plus a SAC distribution model were selected. […] The Vss was predicted using Rodgers and Rowland’s equations (method 2). A Kp scalar was determined to best describe the observed dog data using a sensitivity analysis approach. The final values of Vsac, kin, and kout were determined from the parameter estimation approach selecting the best values to describe the shape of the observed PK profile. For the elimination model development, the in vivo systemic clearance values reported in dogs were employed in a middle-out approach. […] The PBPK model was evaluated through a visual comparison of observed in vivo plasma concentration–time profiles with the concentrations predicted in dogs, and the PK parameters within observed/predicted ratios between 0.5-fold to 2-fold were considered acceptable.

[2] = set-up: method as in Antunes et al. [14]; settings: dog plasma; ref Antunes et al. [14]; cited from earlier work
[3] = set-up: method as in Antunes et al. [14]; settings: ref Antunes et al. [14], cited from earlier work
[4] = dogs, observed, ref Palo et al. [7], cited from earlier work

Structure (SMILES): FC(F)(F)c1ccc(COC(Cn2ccnc2)c2ccc(Cl)cc2Cl)cc1 (stereo not drawn) [dapaconazole, Dapaconazole]
- IC50 (CYP2A6): 20.7 µM
- DDI potential from Ki and R1 values (CYP2C19): high potential
- R1 (CYP2C19; reversible inhibition, substrate S-mephenytoin): 15.14
- DDI potential from Ki and R1 values (CYP3A4; CYP3A): high potential
- FDA Classification as CYP inhibitor (CYP3A4; CYP3A4, substrate midazolam): Strong (AUCR ≥ 5: strong inhibitor)
- FDA Classification as CYP inhibitor (CYP3A4; CYP3A4, substrate nifedipine): Strong (AUCR ≥ 5: strong inhibitor)
- FDA Classification as CYP inhibitor (CYP3A4; CYP3A overall): strong inhibitor; also recorded: moderate to strong inhibition
- R1 (CYP3A4; substrate midazolam): 98.26
- R1 (CYP3A4; substrate nifedipine): 25.70
- AUC0-t Observed/predicted ratio ([1]; intravenous 1 mg/kg): 0.83
- CL Observed/predicted ratio ([1]; intravenous 1 mg/kg): 1.29
- Cmax Observed/predicted ratio ([1]; intravenous 1 mg/kg): 0.92
- t1/2 Terminal Observed/predicted ratio ([1]; intravenous 1 mg/kg): 1.08
- AUC0-t Observed/predicted ratio ([1]; intravenous 2 mg/kg): 1.27
- CL Observed/predicted ratio ([1]; intravenous 2 mg/kg): 1.09
- Cmax Observed/predicted ratio ([1]; intravenous 2 mg/kg): 1.78
- t1/2 Terminal Observed/predicted ratio ([1]; intravenous 2 mg/kg): 1.29
- AUC0-t Observed/predicted ratio ([1]; intravenous 20 mg/kg): 0.65
- CL Observed/predicted ratio ([1]; intravenous 20 mg/kg): 1.54
- Cmax Observed/predicted ratio ([1]; intravenous 20 mg/kg): 0.58
- t1/2 Terminal Observed/predicted ratio ([1]; intravenous 20 mg/kg): 1.04
- Unbound fraction [2]: 0.037
- fu,inc ([3]; human liver microsome incubation): 0.94
- CL int. mic. ([3]; human liver microsomes): 118.5 µL/min/mg
- AUC0-t ([4]; intravenous 1 mg/kg): 255.0 ng·h/mL
- CL ([4]; intravenous 1 mg/kg): 700.0 mL/min
- Cmax ([4]; intravenous 1 mg/kg): 373.2 ng/mL
- t1/2 Terminal ([4]; intravenous 1 mg/kg): 2.1 h
- AUC0-t ([4]; intravenous 2 mg/kg): 779.9 ng·h/mL
- CL ([4]; intravenous 2 mg/kg): 591.7 mL/min
- Cmax ([4]; intravenous 2 mg/kg): 1444.7 ng/mL
- t1/2 Terminal ([4]; intravenous 2 mg/kg): 2.5 h
- AUC0-t ([4]; intravenous 20 mg/kg): 4780.1 ng·h/mL
- CL ([4]; intravenous 20 mg/kg): 700.0 mL/min
- Cmax ([4]; intravenous 20 mg/kg): 4708.3 ng/mL
- t1/2 Terminal ([4]; intravenous 20 mg/kg): 2.3 h
